Source: patent US7417056B2, “5-substituted quinoline and isoquinoline derivatives, a process for their production and their use as anti-inflammatory agents” (Schering AG, priority 2004, dated 2008)

Legend:
[1] = test system: secretion of the cytokine IL-8, induced by lipopolysaccharide (LPS), in the human monocyte cell line THP-1; test: Inhibition of LPS-induced IL-8 secretion in THP-1 cells (ELISA); format: cell-based; conditions: efficiency of dexamethasone = 100%
Protocol: The concentration of the cytokines was determined in the supernatant by means of commercially available ELISA kits.

[2] = test system: tyrosine aminotransferase (TAT); test: Induction of tyrosine aminotransferase (TAT) in rat hepatoma cells; format: cell-based; conditions: for efficiency, induction of TAT: 24 hours, efficiency of dexamethasone = 100%; for EC50: treated for 24 hours
Excerpt: One of the most frequent undesirable actions of a glucocorticoid therapy is the so-called “steroid diabetes” [cf. Hatz, H. J., Glucocorticoide: Immunologische Grundlagen, Pharmakologie und Therapierichtlinien [Glucocorticoids: Immunological Principles, Pharmacology and Therapy Guidelines], Wissenschaftliche Verlagsgesellschaft mbH, Stuttgart, 1998]. The reason for this is the stimulation of gluconeogenesis in the liver by induction of the enzymes that are responsible for this and by free amino acids that are produced from the degradation of proteins (catabolic action of glucocorticoids). A key enzyme of the catabolic metabolism in the liver is the tyrosine aminotransferase (TAT). The activity of this enzyme can be determined photometrically from cell cultures of treated rat hepatoma cells. The cells are treated for 24 hours with the test substances, and then the TAT activity is measured.

[3] = Skin atrophy in rats (skin fold thickness measurement); format: in vivo; conditions: local, daily for 18 days
Protocol: Another undesirable action that occurs especially after local therapy is the induction of a skin atrophy, which leads to the skin's loss of thickness, elasticity, and ultimately the mechanical resistance of the skin. The potential of a substance to induce skin atrophy can be determined in rats. The animals are treated for 18 days daily and locally in equieffective dosages with the test substances. By means of a skin fold thickness measurement, the reduction of the skin thickness over the treatment time can be tracked.

Compound	reduction of the skin thickness ([3]; concentration 0.1% (maximum anti-inflammatory action is achieved)) [%]	EC50 [2] [nM]	reduction of the skin thickness ([3]; concentration 0.01% (maximum anti-inflammatory action is achieved)) [%]	efficiency, inhibition of IL-8 secretion [1] [%]	efficiency, induction of TAT [2] [%]
Cc1ccc2c(NCC(O)(CC(C)(C)c3cc(F)cc4c3OCC4)C(F)(F)F)cccc2n1 (centres unmarked) [Example 1, 5-[4-(5-Fluoro-2,3-dihydrobenzofuran-7-yl)-2-hydroxy-4-methyl-2-trifluoromethyl-pentylamino]-2-methylquinoline]	41			74	93
C[C@]12C=CC(=O)C=C1CC[C@@H]1[C@@H]2[C@@H](O)C[C@@]2(C)[C@H]1CC[C@]2(O)C(=O)CO [prednisolone, reference compound]				96	

Further lines, with some results ahead:

reduction of the skin thickness ([3]; concentration 0.1% (maximum anti-inflammatory action is achieved)) [%]	EC50 [2] [nM]	reduction of the skin thickness ([3]; concentration 0.01% (maximum anti-inflammatory action is achieved)) [%]	Compound	efficiency, inhibition of IL-8 secretion [1] [%]	efficiency, induction of TAT [2] [%]
	10		Cc1ccc2c(NCC(O)(CC(C)(C)c3cc(F)cc4c3OCC4)C(F)(F)F)ccc(F)c2n1 (centres unmarked) [Example 10, 8-Fluoro-5-[4-(5-Fluoro-2,3-dihydrobenzofuran-7-yl)-2-hydroxy-4-methyl-2-trifluoromethyl-pentylamino]-2-methylquinoline]	86	92
	4		Cn1ccc2c(NCC(O)(CC(C)(C)c3cc(F)cc4c3OCC4)C(F)(F)F)cccc2c1=O (centres unmarked) [Example 11, 5-[4-(5-Fluoro-2,3-dihydrobenzofuran-7-yl)-2-hydroxy-4-methyl-2-trifluoromethyl-pentylamino]-2-methylisoquinol-1(2H)-one]	61	86
		65	CCC(=O)O[C@]1(C(=O)CCl)[C@@H](C)C[C@H]2[C@@H]3CCC4=CC(=O)C=C[C@]4(C)[C@@]3(F)[C@@H](O)C[C@@]21C [clobetasol propionate, reference compound]		
